Structures can show the parent of a compound that is named as a salt.
C[C@@]12CC3CC(N)/C(=C/c4ccccc4)CC3CN1CCc1c2[nH]c2ccccc12 (stereo in doubt) (as salt: trifluoroacetic acid salt) [Example 28, 3-Benzylidene-13b-methyl-1,2,3,4,4a,5,7,8,13,13b,14,14a-dodecahydro-indolo[2′,3′: 3,4]pyrido[1,2-b]isoquinolin-2-ylamine]
melting point: 203 to 210 °C

CCCC[C@@]12CC3C[C@H](O)CCC3CN1CCc1c2[nH]c2ccccc12 (stereo partly drawn) [Example 1, [2R-(2α,4aα,13β,14aβ)]-13b-Butyl-1,2,3,4,4a,5,7,8,13,13b,14,14a-dodecahydro-indolo[2′,3′:3,4]pyrido[1,2-b]isoquinolin-2-ol]
melting point: 235 °C (dec.)

C=CC[C@@]12CC3C[C@H](O)CCC3CN1CCc1c2[nH]c2ccccc12 (stereo partly drawn) [Example 2, [2R-(2α,4aα, 13β,14aβ)]-13b-Allyl-1,2,3,4,4a,5,7,8,13,13b,14,14a-dodecahydro-indolo[2′,3′:3,4]pyrido[1,2-b]isoquinolin-2-ol]
melting point: 228 to 230 °C

CCC[C@@]12CC3C[C@H](O)CCC3CN1CCc1c2[nH]c2ccccc12 (stereo partly drawn) [Example 3, [2R-(2α,4aα,13β,14aβ)]-13b-Propyl-1,2,3,4,4a,5,7,8,13,13b,14,14a-dodecahydro-indolo[2′,3′:3,4]pyrido[1,2-b]isoquinolin-2-ol]
melting point: 195 °C (dec.)

C=CC[C@@]12CC3CC(=O)CCC3CN1CCc1c2[nH]c2ccccc12 (stereo partly drawn) [Example 5, [2R-(2α,4aα,13β,14aβ)]-13b-Allyl-3,4,4a,5,7,8,13,13b,14,14a-decahydro-1H-indolo[2′,3′:3,4]pyrido[1,2-b]isoquinolin-2-one]
melting point: 220 to 223 °C

CCC[C@@]12CC3CC(=O)CCC3CN1CCc1c2[nH]c2ccccc12 (stereo partly drawn) [Example 6, [2R-(2α,4aα, 13β, 14aβ)]-13b-Propyl-3,4,4a,5,7,8,13,13b,14,14a-decahydro-1H-indolo[2′,3′;3,4]pyrido[1,2-b]isoquinolin-2-one]
melting point: 255 °C (dec.)

C=CC[C@@]12CC3C[C@H](O)/C(=C/c4ccccc4)CC3CN1CCc1c2[nH]c2ccccc12 (stereo partly drawn) [Example 10, [2S-(2α,4aα,13β,14aα)]-13b-Allyl-3-benzylidene-1,2,3,4,4a,5,7,8,13,13b,14,14a-dodecahydro-indolo[2′,3′:3,4]pyrido[1,2-b]isoquinolin-2-ol]
melting point: 211 to 213 °C

CCC[C@@]12CC3C[C@H](O)/C(=C/c4ccccc4)CC3CN1CCc1c2[nH]c2ccccc12 (stereo partly drawn) [Example 11, [2S-(2α,4aα,13β, 14aβ)]-3-Benzylidine-13b-propyl-1,2,3,4,4a,5,7,8,13,13b,14,14a-dodecahydro-indolo[2′,3′:3,4]pyrido[1,2-b]-isoquinolin-2-ol]
melting point: 224 to 226 °C

CCCC[C@@]12CC3C[C@H](O)/C(=C/c4ccccc4)CC3CN1CCc1c2[nH]c2ccccc12 (stereo partly drawn) [Example 12, [2S-(2α,4aα,13β,14aβ)]-3-Benzylidine-13b-butyl-1,2,3,4,4a,5,7,8,13,13b,14,14a-dodecahydro-1-indolo[2′,3′:3,4]pyrido[1,2-b]-isoquinolin-2-ol]
melting point: 222 to 225 °C

COc1ccc(/C=C2\CC3CN4CCc5c([nH]c6ccccc56)[C@]4(C)CC3CC2=O)cc1OC (stereo partly drawn) [Example 18, [4aR-[(E),4aα, 13bβ, 14aβ]]-3-(3,4-Dimethoxy-benzylidene)-13b-methyl-3,4,4a,5,7,8,13,13b,14,14a-decahydro-1H-indolo[2′,3′:3,4]pyrido[1,2-b]-isoquinolin-2-one]
melting point: 120 to 125 °C

COc1cccc(/C=C2\CC3CN4CCc5c([nH]c6ccccc56)[C@]4(C)CC3CC2=O)c1 (stereo partly drawn) [Example 19, [4aR-[(E),4aα, 13bβ,14aβ]]3-(3-Methoxy-benzylidene)-13b-methyl-3,4,4a, 5,7,8,13,13b,14,14a-decahydro-1H-indolo[2′,3′:3,4]pyrido[1,2-b]-isoquinolin-2-one]
melting point: 125 to 130 °C

COc1cc(/C=C2\CC3CN4CCc5c([nH]c6ccccc56)[C@]4(C)CC3CC2=O)cc(OC)c1 (stereo partly drawn) [Example 20, [4aR-[(E),4aα,13bβ, 14aβ]]-3-(3,5-Dimethoxy-benzylidene)-13b-methyl-3,4,4a,5,7,8,13,13b,14,14a-decahydro-1H-indolo[2′,3′:3,4]pyrido[1,2-b]-isoquinolin-2-one]
melting point: 110 to 120 °C

C[C@@]12CC3CC(=O)/C(=C/c4ccc(Cl)c(Cl)c4)CC3CN1CCc1c2[nH]c2ccccc12 (stereo partly drawn) [Example 21, [4aR-[(E),4aα,13bβ, 14aβ]]-3-(3,4-Dichloro-benzylidene)-13b-methyl-3,4,4a,5,7,8,13,13b,14,14a-decahydro-1H-indolo[2′,3′:3,4]pyrido[1,2-b]-isoquinolin-2-one]
melting point: 140 to 145 °C

COc1ccc(/C=C2\CC3CN4CCc5c([nH]c6ccccc56)[C@]4(C)CC3C[C@@H]2O)cc1OC (stereo partly drawn) [Example 22, [2R-[2α(E),4aα, 13bβ, 14aβ]]-3-(3,4-Dimethoxy-benzylidene)-13b-methyl-1,2,3,4,4a,5,7,8,13,13b,14,14a-dodecahydro-indolo[2′,3′:3,4]pyrido[1,2-b]-isoquinolin-2-ol]
melting point: 118 to 121 °C

COc1cccc(/C=C2\CC3CN4CCc5c([nH]c6ccccc56)[C@]4(C)CC3C[C@@H]2O)c1 (stereo partly drawn) [Example 23]
melting point: 140 to 142 °C

COc1cc(/C=C2\CC3CN4CCc5c([nH]c6ccccc56)[C@]4(C)CC3C[C@@H]2O)cc(OC)c1 (stereo partly drawn) [Example 24, [2R-[2α(E),4aα,13bβ,14aβ]]-3-(3,5-Dimethoxy-benzylidene)-13b-methyl-1,2,3,4,4a,5,7,8,13,13b,14,14a-dodecahydro-indolo[2′,3′:3,4]pyrido[1,2-b]-isoquinolin-2-ol]
melting point: 128 to 132 °C

C[C@@]12CC3C[C@H](O)/C(=C/c4ccc(Cl)c(Cl)c4)CC3CN1CCc1c2[nH]c2ccccc12 (stereo partly drawn) [Example 25, [2R-[2α(E),4aα,13bβ, 14aβ]]-3-(3,4-Dichloro-benzylidene)-13b-methyl-1,2,3,4,4a,5,7,8,13,13b,14,14a-dodecahydro-indolo[2′,3′:3,4]pyrido[1,2-b]-isoquinolin-2-ol]
melting point: 125 to 130 °C

C[C@@]12CC3CC(=NO)/C(=C/c4ccccc4)CC3CN1CCc1c2[nH]c2ccccc12 (stereo partly drawn) [Example 27, [4aR-[(E),4aα,13bβ,14aβ]]-3-Benzylidene-13b-methyl-3,4,4a,5,7,8,13,13b,14,14a-decahydro-1H-indolo[2′,3′:3,4]pyrido[1 ,2-b]-isoquinolin-2-one oxime]
melting point: 142 to 145 °C

Source: patent publication US20020072606A1, “Chemokine receptor antagonists” (Warner-Lambert Company, priority 1999, published 2002)
